Assay results published in publication PMC12624434 (ACS Pharmacology & Translational Science, 2025).
Several values for one entry are separate records, joined by “and”; a condition that tells them apart may be missing. Equal values may be shown once. Entries after “also recorded” stand apart in the source; their conditions may differ. Read-outs that look alike come from different tables or passages of the source. Each block holds one molecule with its values, some of them ahead of it.

Legend:
[1] = target: T1, NRP1 b1 domain (Homo sapiens, UniProt O14786); assay: SPR binding to immobilized NRP1 b1 domain (Biacore 4000, CM5 chip); conditions: steady-state binding, 25 °C, mean ± SD; for Kd: read-out: SPR NRP1 b1 domain equilibrium KD
T1 construct: with the purified recombinant NRP1 b1 domain immobilized on the chip; inferred from Ni-NTA capture), TEV-cleavable (cleaved yes); made in house; host or cells: E. coli Rosetta (DE3)
T1 sequence (O14786 275-424 limits assumed): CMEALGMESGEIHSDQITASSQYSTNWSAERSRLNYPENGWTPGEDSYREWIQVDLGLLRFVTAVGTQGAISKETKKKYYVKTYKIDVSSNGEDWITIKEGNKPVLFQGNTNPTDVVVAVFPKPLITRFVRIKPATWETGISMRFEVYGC
Procedure: Surface Plasmon Resonance experiments were performed using a Biacore 4000 instrument at a constant temperature of 25 °C. Sensor chips, buffer stock solutions, and immobilization reagents were purchased from GE Healthcare. Recombinant human NRP1-b1 was produced in-house and recombinant human NRP1-ECD (extracellular domain) was purchased from ACRO (catalogue number NR1-H5A228). All other reagents were obtained from Sigma.
PBS containing 0.05% surfactant P20 was used as the running buffer during immobilization. NRP1-b1 was immobilized onto a CM5 chip using random amine coupling. The four flow cells were treated in the same way to optimize throughput. In summary, spots 1 and 2 were activated with the coupling reagents EDC and NHS for 10 min. NRP1-b1 at a concentration of 20 μg/mL in 10 mM sodium acetate pH 5 was injected onto the surface for 10 and 5 min in spots 1 and 2, respectively to generate surfaces with high and low density. […] The unmodified spot 3 was used as a reference.
PBS buffer containing 0.05% surfactant P20 and 3% DMSO was used as the running buffer and sample dilution buffer throughout these experiments. Dose–responses were obtained using a 2-fold sample dilution from 16 μM to 31 nM, using an injection time of 60 s. Surface regeneration between injections was not necessary, but a wash step with 1 M NaCl was included after injection of the highest concentration sample for each compound.
Binding curves were corrected for variations in DMSO concentration and normalized by molecular weight. Binding results to high and low-density surfaces were processed independently and the average ± SD is presented. K Ds reported are derived from steady-state binding responses and therefore correspond to the equilibrium binding affinity of the compounds.

[2] = Solubility (observation during SPR); format: physicochemical; conditions: noted with SPR data fitting
[3] = Pharmacokinetics in mice, 2 mg/kg iv; format: in vivo; conditions: female, BALB/c, mouse, plasma; for clearance: iv, 2 mg/kg; for AUC: read-out: AUCall
Procedure: To test compound drug-like properties, selected compounds with low IC50 were further evaluated for their pharmacokinetic (PK) profile. 6–8 week-old BABL/c female mice were used. Two mg/kg of compounds was formulated in 7.5% DMSO and 92.5% PBS solution and intravenously dosed into the tail vein as a bolus. Blood samples were collected by cardiac puncture at 5, 15, 30, 60, 180, and 240 min post dosing. Plasma samples were prepared by centrifugation at 7000 rpm for 5 min, and supernatants were collected, immediately snap-frozen on dry ice and stored at −20 °C. Samples were analyzed by liquid chromatography-tandem mass spectrometry using electrospray ionization and data was analyzed by WinNonlin software.

[4] = target: T2, NRP1-a1,b1 (Homo sapiens, UniProt O14786); assay: bt-VEGFA cell-free competition binding assay (plate-based)
T2 sequence (O14786 273-427 limits assumed): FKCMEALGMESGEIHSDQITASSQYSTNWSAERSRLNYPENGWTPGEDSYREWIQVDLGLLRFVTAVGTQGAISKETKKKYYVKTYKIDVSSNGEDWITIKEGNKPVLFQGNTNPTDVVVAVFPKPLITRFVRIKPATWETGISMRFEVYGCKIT
Procedure: The assay was conducted as previously described. Briefly, the 96-well plates were precoated with NRP1 protein at 3 μg/mL overnight at 4 °C. On the following day, the plates were treated with blocking buffer (PBS containing 1%1% BSA) and washed three times with wash buffer (PBS containing 0.1% Tween-20). The various concentrations of compounds diluted in PBS containing 1%1% DMSO were added, followed by addition of 0.25 nM of bt-VEGFA165. After 2 h of incubation at room temperature, the plates were washed three times with wash buffer. The bound bt-VEGFA165 to NRP1 was detected by streptavidin– horseradish peroxidase conjugates and the enzyme substrate, and measured using a Tecan Genius plate reader at 450 nm with a reference wavelength at 595 nm. Nonspecific binding was determined in the absence of NRP1-coated wells of the plates.

[5] = pK BHX scale; no reference given; cited from earlier work
[6] = plate-based assay, Figure 2D, read-out: IC50, competitive inhibition of bt-VEGFA binding to NRP1
[7] = 0.25 nM bt-VEGFA165, mean ± SEM, at least three independent experiments, read-out: Competition analysis bt-VEGFA, cell-free NRP1-a1,b1 IC50

Kd [1]: 1440 ± 130 nM
SMILES: Cn1cncc1CNCc1cccc(-c2cc(S(=O)(=O)Nc3ccsc3C(=O)N[C@@H](CCCNC(=N)N)C(=O)O)c3ncccc3c2)c1 [Compound 12a, (2S)-5-Guanidino-2-[[3-[[6-[3-[[(3-methylimidazol-4-yl)-methylamino]-methyl]-phenyl]-8-quinolyl]-sulfonylamino]-thiophene-2-carbonyl]-amino]-pentanoic Acid, Formic Acid]

Kd [1]: 2270 ± 70 nM
SMILES: CNCc1ccc(-c2cc(S(=O)(=O)Nc3ccsc3C(=O)N[C@@H](CCCNC(=N)N)C(=O)O)c3ncccc3c2)cc1 [Compound 12b, (2S)-5-Guanidino-2-[[3-[[6-[4-(methylaminomethyl)-phenyl]-8-quinolyl]-sulfonylamino]-thiophene-2-carbonyl]-amino]-pentanoic Acid, Formic Acid]

Kd [1]: 800 ± 140 nM
SMILES: Cn1cncc1CNCc1ccc(-c2cc(S(=O)(=O)Nc3ccsc3C(=O)N[C@@H](CCCNC(=N)N)C(=O)O)c3ncccc3c2)cc1 [Compound 12c, (2S)-5-Guanidino-2-[[3-[[6-[4-[[(3-methylimidazol-4-yl)-methylamino]-methyl]-phenyl]-8-quinolyl]-sulfonylamino]-thiophene-2-carbonyl]-amino]-pentanoic Acid, Formic Acid]

Kd [1]: 650 ± 50 nM
SMILES: N=C(N)NCCC[C@H](NC(=O)c1sccc1NS(=O)(=O)c1cc(-c2cccc(CN)c2)cc2cccnc12)C(=O)O [Compound 12d, (2S)-2-[[3-[[6-[3-(Aminomethyl)-phenyl]-8-quinolyl]-sulfonylamino]-thiophene-2-carbonyl]-amino]-5-guanidino-pentanoic Acid, Formic Acid]

Kd [1]: 920 ± 150 nM
SMILES: N=C(N)NCCC[C@H](NC(=O)c1sccc1NS(=O)(=O)c1cc(-c2ccc(CN)cc2)cc2cccnc12)C(=O)O [Compound 12e, (2S)-2-[[3-[[6-[4-(Aminomethyl)-phenyl]-8-quinolyl]-sulfonylamino]-thiophene-2-carbonyl]-amino]-5-guanidino-pentanoic Acid, Formic Acid]

Kd [1]: 1490 ± 200 nM
SMILES: N=C(N)NCCC[C@H](NC(=O)c1sccc1NS(=O)(=O)c1cc(-c2ccnc(N)c2)cc2cccnc12)C(=O)O [Compound 12f, (2S)-2-[[3-[[6-(2-Amino-4-pyridyl)-8-quinolyl]-sulfonylamino]-thiophene-2-carbonyl]-amino]-5-guanidino-pentanoic Acid, Formic Acid]

solubility [2]: poor solubility | AUC(0-inf) [3]: 491 ng·h/mL | AUC(0-t) [3]: 490 ng·h/mL | Cmax [3]: 2050 ng/mL | Tmax [3]: 4.8 min | Vd [3]: 0.569 L/kg | half-life [3]: 23.4 min | clearance [3]: 67.9 mL/min/kg | AUC [3]: 490 ng·h/mL | IC50 [4, 6]: < 500 nM
SMILES: CN(C)c1nc(CNc2cc(S(=O)(=O)Nc3ccsc3C(=O)N[C@@H](CCCNC(=N)N)C(=O)O)c3ncccc3c2)cs1.O=CO [Compound 12g, (2S)-2-[[3-[[6-[[2-(Dimethylamino)-thiazol-4-yl]-methylamino]-8-quinolyl]-sulfonylamino]-thiophene-2-carbonyl]-amino]-5-guanidino-pentanoic Acid, Formic Acid]
SPR NRP1 b1 domain equilibrium KD [1]: did not converge; also recorded: Curve fit does not converge

Kd [1]: 1040 ± 120 nM
SMILES: N=C(N)NCCC[C@H](NC(=O)c1sccc1NS(=O)(=O)c1cc(NCc2csc(N)n2)cc2cccnc12)C(=O)O [Compound 12i, (2S)-2-[[3-[[6-[(2-Aminothiazol-4-yl)-methylamino]-8-quinolyl]-sulfonylamino]-thiophene-2-carbonyl]-amino]-5-guanidino-pentanoic Acid, Formic Acid]

AUC(0-inf) [3]: 643 ng·h/mL | AUC(0-t) [3]: 640 ng·h/mL | Cmax [3]: 2500 ng/mL | Tmax [3]: 4.8 min | Vd [3]: 0.628 L/kg | half-life [3]: 36 min | clearance [3]: 51.9 mL/min/kg | AUC [3]: 640 ng·h/mL | IC50 [4, 7]: 450 ± 10 nM | IC50 [4, 6]: < 500 nM | Competition analysis bt-VEGFA, cell-free NRP1-a1,b1 Hill coefficient ([4]; value in parentheses): 1.0 | Kd [1]: 530 ± 140 nM
SMILES: CNc1nc(CNc2cc(S(=O)(=O)Nc3ccsc3C(=O)N[C@@H](CCCNC(=N)N)C(=O)O)c3ncccc3c2)cs1 [Compound 12j, (2S)-5-Guanidino-2-[[3-[[6-[[2-(methylamino)-thiazol-4-yl]-methylamino]-8-quinolyl]-sulfonylamino]-thiophene-2-carbonyl]-amino]-pentanoic Acid]

Kd [1]: 1140 ± 120 nM
SMILES: N=C(N)NCCC[C@H](NC(=O)c1sccc1NS(=O)(=O)c1cc(NCc2cccc(N3CCOCC3)n2)cc2cccnc12)C(=O)O [Compound 12k, (2S)-5-Guanidino-2-[[3-[[6-[(6-morpholino-2-pyridyl)-methylamino]-8-quinolyl]-sulfonylamino]-thiophene-2-carbonyl]-amino]-pentanoic Acid]

Kd [1]: 1230 ± 360 nM
SMILES: N=C(N)NCCC[C@H](NC(=O)c1sccc1NS(=O)(=O)c1cc(NCc2ccc(N)nc2)cc2cccnc12)C(=O)O [Compound 12l, (2S)-2-[[3-[[6-[(6-Amino-3-pyridyl)-methylamino]-8-quinolyl]-sulfonylamino]-thiophene-2-carbonyl]-amino]-5-guanidino-pentanoic Acid, Formic Acid]

Kd [1]: 7710 ± 310 nM
SMILES: CN(C)c1ncc(CNc2cc(S(=O)(=O)Nc3ccsc3C(=O)N[C@@H](CCCNC(=N)N)C(=O)O)c3ncccc3c2)cn1 [Compound 12m, (2S)-2-[[3-[[6-[[2-(Dimethylamino)-pyrimidin-5-yl]-methylamino]-8-quinolyl]-sulfonylamino]-thiophene-2-carbonyl]-amino]-5-guanidino-pentanoic Acid]

Kd [1]: 820 ± 100 nM
SMILES: CN(C)c1ccc(CNc2cc(S(=O)(=O)Nc3ccsc3C(=O)N[C@@H](CCCNC(=N)N)C(=O)O)c3ncccc3c2)cn1 [Compound 12n, (2S)-2-[[3-[[6-[[6-(Dimethylamino)-3-pyridyl]-methylamino]-8-quinolyl]-sulfonylamino]-thiophene-2-carbonyl]-amino]-5-guanidino-pentanoic Acid]

IC50 [4, 7]: 900 ± 160 nM | Kd [1]: 1410 ± 160 nM
SMILES: N=C(N)NCCC[C@H](NC(=O)c1sccc1NS(=O)(=O)c1cccc2cccnc12)C(=O)O [Compound 12o, (S)-5-Guanidino-2-{[3-(quinoline-8-sulfonylamino)-thiophene-2-carbonyl]-amino}-pentanoic Acid]

Kd [1]: 510 nM and 2540 nM
SMILES: N=C(N)NCCC[C@H](NC(=O)c1sccc1NS(=O)(=O)c1cc(-c2csc(N)n2)cc2cccnc12)C(=O)O [Compound 12q, (S)-2-({3-[6-(2-Amino-thiazol-4-yl)-quinoline-8-sulfonylamino]-thiophene-2-carbonyl}-amino)-5-guanidino-pentanoic Acid]

SMILES: CCOCC [diethyl ether]
pK BHX (hydrogen bond acceptor strength) [5]: 1.01

SMILES: c1c[nH]cn1 [imidazole]
pK BHX (hydrogen bond acceptor strength) [5]: 2.72

SMILES: c1ccc2ncccc2c1 [quinoline]
pK BHX (hydrogen bond acceptor strength) [5]: 1.89

SMILES: C1CCOC1 [tetrahydrofuran]
pK BHX (hydrogen bond acceptor strength) [5]: 1.28
